Source: patent US9326973B2, “Hepatitis C virus inhibitors” (priority 2012, dated 2016)

tested on: HCV replicon, genotype-1a variant with glutamine 30 changed to glutamate in the NS5A protein; test: microbe, parasite or virus in culture; type: cell-based, HCV genotype 1a; conditions: not given
Method in brief: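 Synergy was assessed by combining several fixed amounts of an NS5A-targeting compound with a titration of the second compound of interest.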

SMILES	reciprocal synergistic inhibitory effect for the combination
COC(=O)N[C@H](C(=O)N1CCC[C@H]1c1nc(-c2ccc(-c3ccc(-c4c[nH]c([C@@H]5CCCN5C(=O)[C@@H](NC(=O)OC)C(C)C)n4)cc3)cc2)c[nH]1)C(C)C [BMS-790052, reference compound]	~100 fold

same assay, conditions: HCV replicon genotype 1a Q30E (Q→E) variant; test compound titrated with an NS5A-targeting compound (BMS-790052 fixed at 200 nM); ranking of synergist activity

SMILES	Fold-Synergistic 1a (Q30E)
CC(C)N(C(=O)C(=O)N[C@H](c1nc(-c2ccc(-c3ccc(-c4c[nH]c([C@@H](NC(=O)C(=O)N(C(C)C)C5CC5)C(C)(C)C)n4)cc3)cc2)c[nH]1)C(C)(C)C)C1CC1 [Compound W-49]	>100 fold
CC(C)(C)[C@H](NC(=O)C(F)(F)C(O)c1ccccc1)c1nc(-c2ccc(-c3ccc(-c4c[nH]c([C@@H](NC(=O)C(F)(F)C(O)c5ccccc5)C(C)(C)C)n4)cc3)cc2)c[nH]1 (stereo partly drawn) [Compound P-168]	>100 fold
CC(C)CC(=O)NC1(c2nc(-c3ccc(-c4ccc(-c5c[nH]c(C6(NC(=O)CC(C)C)CCC6)n5)cc4)cc3)c[nH]2)CCC1 [Compound N-11]	<10 fold
CC(C)(C)OC(=O)N[C@@H]1CCCC(C(=O)N[C@H](c2nc(-c3ccc(-c4ccc(-c5c[nH]c([C@@H](NC(=O)C6CCC[C@@H](NC(=O)OC(C)(C)C)C6)C(C)(C)C)n5)cc4)cc3)c[nH]2)C(C)(C)C)C1 (stereo partly drawn) [Compound S-266]	>100 fold
CC(C)[C@H](NC(=O)C(=O)N1CCC(C(F)(F)F)CC1)c1nc(-c2ccc(-c3ccc(-c4c[nH]c([C@@H](NC(=O)C(=O)N5CCC(C(F)(F)F)CC5)C(C)C)n4)cc3)cc2)c[nH]1 [Compound W-53]	>100 fold
CC(C)[C@H](NC(=O)[C@@]1(C)CCCCO1)c1nc(-c2ccc(-c3ccc(-c4c[nH]c([C@@H](NC(=O)[C@@]5(C)CCCCO5)C(C)C)n4)cc3)cc2)c[nH]1 [Compound P-184]	>100 fold
CC(C)CC(=O)N[C@@H](CC(C)C)c1nc(-c2ccc(-c3ccc(-c4c[nH]c([C@H](CC(C)C)NC(=O)CC(C)C)n4)cc3)cc2)c[nH]1 [Compound N-31]	>10 fold
CC(C)CC(=O)N[C@@H](CC(C)(C)C)c1nc(-c2ccc(-c3ccc(-c4c[nH]c([C@H](CC(C)(C)C)NC(=O)CC(C)C)n4)cc3)cc2)c[nH]1 [Compound P-4]	>10 fold
CC(C)(C)[C@H](NC(=O)[C@H]1CC[C@@](C)(O)CC1)c1nc(-c2ccc(-c3ccc(-c4c[nH]c([C@@H](NC(=O)[C@H]5CC[C@@](C)(O)CC5)C(C)(C)C)n4)cc3)cc2)c[nH]1 [Compound W-175]	>100 fold
CC[C@H](NC(=O)[C@@H](NC(=O)OC)C(C)C)c1nc(-c2ccc(-c3ccc(-c4c[nH]c([C@H](CC)NC(=O)[C@@H](NC(=O)OC)C(C)C)n4)cc3)cc2)c[nH]1 [Compound N-41]	>10 fold
CC(C)(C)OC(=O)N[C@]1(C(=O)N[C@H](c2nc(-c3ccc(-c4ccc(-c5c[nH]c([C@@H](NC(=O)[C@@]6(NC(=O)OC(C)(C)C)C[C@H]6CC(F)F)C(C)(C)C)n5)cc4)cc3)c[nH]2)C(C)(C)C)C[C@H]1CC(F)F [Compound W-1]	>100 fold
CC(C)OC(=O)N1C[C@H](F)C[C@H]1C(=O)N[C@H](c1nc(-c2ccc(-c3ccc(-c4c[nH]c([C@@H](NC(=O)[C@@H]5C[C@@H](F)CN5C(=O)OC(C)C)C(C)(C)C)n4)cc3)cc2)c[nH]1)C(C)(C)C [Compound W-107]	>100 fold
CC(C)(C)[C@H](NC(=O)C1(C(F)F)CCCCO1)c1nc(-c2ccc(-c3ccc(-c4c[nH]c([C@@H](NC(=O)C5(C(F)F)CCCCO5)C(C)(C)C)n4)cc3)cc2)c[nH]1 (stereo partly drawn) [Compound P-179]	>100 fold
CC(C)(C)[C@H](NC(=O)[C@@H]1C[C@@H](F)CN1C(=O)C1CC1)c1nc(-c2ccc(-c3ccc(-c4c[nH]c([C@@H](NC(=O)[C@@H]5C[C@@H](F)CN5C(=O)C5CC5)C(C)(C)C)n4)cc3)cc2)c[nH]1 [Compound W-104]	>100 fold
CC(C)(C)OC(=O)N1CCC[C@]1(C)C(=O)N[C@H](c1nc(-c2ccc(-c3ccc(-c4c[nH]c([C@@H](NC(=O)[C@@]5(C)CCCN5C(=O)OC(C)(C)C)C(C)(C)C)n4)cc3)cc2)c[nH]1)C(C)(C)C [Compound L-15]	>100 fold
O=C([C@H]1CCCO1)N1CCC[C@H]1c1ncc(-c2ccc(-c3ccc(-c4cnc([C@@H]5CCCN5C(=O)[C@H]5CCCO5)[nH]4)cc3)cc2)[nH]1 [Compound S-111]	<10 fold
CN(C)C(=O)C(=O)N[C@H](c1nc(-c2ccc(-c3ccc(-c4c[nH]c([C@@H](NC(=O)C(=O)N(C)C)C(C)(C)C)n4)cc3)cc2)c[nH]1)C(C)(C)C [Compound W-10]	>100 fold
CC(C)(C)[C@H](NC(=O)C12CCC(CC1)CO2)c1nc(-c2ccc(-c3ccc(-c4c[nH]c([C@@H](NC(=O)C56CCC(CC5)CO6)C(C)(C)C)n4)cc3)cc2)c[nH]1 [Compound Y-74]	>100 fold
COC(=O)N[C@@H](C(=O)N[C@H](c1ncc(-c2ccc(-c3ccc(-c4cnc([C@@H](NC(=O)[C@H](NC(=O)OC)C(C)C)C(C)C)o4)cc3)cc2)o1)C(C)C)C(C)C [Compound N-1]	>10 fold
CC(C)(C)[C@H](NC(=O)[C@@H]1CCC(=O)N1)c1nc(-c2ccc(-c3ccc(-c4c[nH]c([C@@H](NC(=O)[C@@H]5CCC(=O)N5)C(C)(C)C)n4)cc3)cc2)c[nH]1 [Compound L-10]	>10 fold

SMILES	Fold-Synergistic 1a (Q30E)
CC(C)(OCC(F)F)C(=O)N[C@H](c1nc(-c2ccc(-c3ccc(-c4c[nH]c([C@@H](NC(=O)C(C)(C)OCC(F)F)C5(C)CC5)n4)cc3)cc2)c[nH]1)C1(C)CC1 [Compound Y-64]	>100 fold
COC(=O)N[C@@H](C(=O)NC1(c2nc(-c3ccc(-c4ccc(-c5c[nH]c(C6(NC(=O)[C@H](NC(=O)OC)C(C)C)Cc7ccccc7C6)n5)cc4)cc3)c[nH]2)Cc2ccccc2C1)C(C)C [Compound N-17]	<10 fold
COCCC(=O)N1CCC[C@H]1c1ncc(-c2ccc(-c3ccc(-c4cnc([C@@H]5CCCN5C(=O)CCOC)[nH]4)cc3)cc2)[nH]1 [Compound S-192]	<10 fold
O=C(c1ccc(-c2ccccc2)cc1)N1CCC[C@H]1c1ncc(-c2ccc(-c3ccc(-c4cnc([C@@H]5CCCN5C(=O)c5ccc(-c6ccccc6)cc5)[nH]4)cc3)cc2)[nH]1 [Compound S-117]	>10 fold
CC(C)(C)OC(=O)N1C[C@@H](O)C[C@H]1C(=O)N[C@H](c1nc(-c2ccc(-c3ccc(-c4c[nH]c([C@@H](NC(=O)[C@@H]5C[C@H](O)CN5C(=O)OC(C)(C)C)C5(C)CC5)n4)cc3)cc2)c[nH]1)C1(C)CC1 [Compound W-99]	>100 fold
CC(C)(C)[C@H](NC(=O)C(C)(C)C1(O)CCOCC1)c1nc(-c2ccc(-c3ccc(-c4c[nH]c([C@@H](NC(=O)C(C)(C)C5(O)CCOCC5)C(C)(C)C)n4)cc3)cc2)c[nH]1 [Compound P-158]	>100 fold
CN(C)C(=O)C(C)(C)C(=O)N[C@H](c1nc(-c2ccc(-c3ccc(-c4c[nH]c([C@@H](NC(=O)C(C)(C)C(=O)N(C)C)C(C)(C)C)n4)cc3)cc2)c[nH]1)C(C)(C)C [Compound W-138]	>100 fold
O=C(NC(c1nc(-c2ccc(-c3ccc(-c4c[nH]c(C(NC(=O)C5CCC(F)(F)CC5)C5(C(F)(F)F)CC5)n4)cc3)cc2)c[nH]1)C1(C(F)(F)F)CC1)C1CCC(F)(F)CC1 (stereo not drawn) [Compound N-109B]	>100 fold
CC1(C(=O)N2CCC[C@H]2c2ncc(-c3ccc(-c4ccc(-c5cnc([C@@H]6CCCN6C(=O)C6(C)CC6)[nH]5)cc4)cc3)[nH]2)CC1 [Compound S-160]	<10 fold
CC(C)(C)[C@H](NC(=O)C(=O)N1CCCC1)c1nc(-c2ccc(-c3ccc(-c4c[nH]c([C@@H](NC(=O)C(=O)N5CCCC5)C(C)(C)C)n4)cc3)cc2)c[nH]1 [Compound W-21]	>100 fold
O=C(c1ccc(-c2ccccc2)o1)N1CCC[C@H]1c1ncc(-c2ccc(-c3ccc(-c4cnc([C@@H]5CCCN5C(=O)c5ccc(-c6ccccc6)o5)[nH]4)cc3)cc2)[nH]1 [Compound S-137]	>10 fold
CC(C)CC(=O)NC1(c2nc(-c3ccc(-c4ccc(-c5c[nH]c(C6(NC(=O)CC(C)C)CCCCC6)n5)cc4)cc3)c[nH]2)CCCCC1 [Compound N-24]	<10 fold
CCCC(C)(C)C(=O)N1CCC[C@H]1c1ncc(-c2ccc(-c3ccc(-c4cnc([C@@H]5CCCN5C(=O)C(C)(C)CCC)[nH]4)cc3)cc2)[nH]1 [Compound S-190]	<10 fold
O=C(c1ccc(C(F)(F)F)nc1)N1CCC[C@H]1c1ncc(-c2ccc(-c3ccc(-c4cnc([C@@H]5CCCN5C(=O)c5ccc(C(F)(F)F)nc5)[nH]4)cc3)cc2)[nH]1 [Compound S-140]	>10 fold
O=C(CCN1CCOCC1)N1CCC[C@H]1c1ncc(-c2ccc(-c3ccc(-c4cnc([C@@H]5CCCN5C(=O)CCN5CCOCC5)[nH]4)cc3)cc2)[nH]1 [Compound S-196]	<10 fold
CC(C)(C)[C@H](NC(=O)C1CCC(=O)CC1)c1nc(-c2ccc(-c3ccc(-c4c[nH]c([C@@H](NC(=O)C5CCC(=O)CC5)C(C)(C)C)n4)cc3)cc2)c[nH]1 [Compound W-173]	>100 fold
C#CCCC(=O)N1CCC[C@H]1c1ncc(-c2ccc(-c3ccc(-c4cnc([C@@H]5CCCN5C(=O)CCC#C)[nH]4)cc3)cc2)[nH]1 [Compound S-179]	<10 fold
CC(C)CCC(=O)N1CCC[C@H]1c1ncc(-c2ccc(-c3ccc(-c4cnc([C@@H]5CCCN5C(=O)CCC(C)C)[nH]4)cc3)cc2)[nH]1 [Compound S-174]	<10 fold
O=C(C1Cc2ccccc2O1)N1CCC[C@H]1c1ncc(-c2ccc(-c3ccc(-c4cnc([C@@H]5CCCN5C(=O)C5Cc6ccccc6O5)[nH]4)cc3)cc2)[nH]1 (stereo partly drawn) [Compound S-157]	>10 fold

same assay, conditions: Hepatitis C virus; genotype 1a Q30E replicon; P-55 fixed at 200 nM; read-out: EC50 of BMS-790052 in the presence of a fixed amount of P-55

SMILES	EC50
COC(=O)N[C@H](C(=O)N1CCC[C@H]1c1nc(-c2ccc(-c3ccc(-c4c[nH]c([C@@H]5CCCN5C(=O)[C@@H](NC(=O)OC)C(C)C)n4)cc3)cc2)c[nH]1)C(C)C [BMS-790052, reference compound]	~0.002 µM

same assay, conditions: Hepatitis C virus; genotype 1a Q30E replicon; compound alone; read-out: EC50, titrated singly

SMILES	EC50
COC(=O)N[C@H](C(=O)N1CCC[C@H]1c1nc(-c2ccc(-c3ccc(-c4c[nH]c([C@@H]5CCCN5C(=O)[C@@H](NC(=O)OC)C(C)C)n4)cc3)cc2)c[nH]1)C(C)C [BMS-790052, reference compound]	~0.2 µM
